Test results reported in paper PMC3298469, “A selective and potent CXCR3 antagonist SCH 546738 attenuates the development of autoimmune diseases and delays graft rejection” (BMC Immunology, 2012).

Tests used:
[1] = biological target: T1, CXCR3 (Homo sapiens, UniProt P49682); assay: human activated T cell chemotaxis induced by CXCL9, CXCL10, CXCL11; type: cell-based; design: endogenous in cells
T1 sequence (P49682 1-368): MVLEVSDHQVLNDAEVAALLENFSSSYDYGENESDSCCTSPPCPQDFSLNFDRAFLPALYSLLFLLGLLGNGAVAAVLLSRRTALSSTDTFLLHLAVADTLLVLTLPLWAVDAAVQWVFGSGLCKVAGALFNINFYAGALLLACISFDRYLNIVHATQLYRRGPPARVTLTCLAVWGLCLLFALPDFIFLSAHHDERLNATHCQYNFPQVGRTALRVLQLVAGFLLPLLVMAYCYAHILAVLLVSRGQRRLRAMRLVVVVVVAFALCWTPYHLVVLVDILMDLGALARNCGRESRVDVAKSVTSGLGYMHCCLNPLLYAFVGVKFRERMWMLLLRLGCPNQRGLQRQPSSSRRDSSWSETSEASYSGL
Method: The preparation of human activated T cells was performed as described previously [39]. Human peripheral blood lymphocytes were prepared by Ficoll-Hypaque centrifugation, depleted of monocytes, and stimulated for 2 days with 1 µg/ml PHA (Murex Diagnostics, Dartford, U.K.) and 100 U/ml IL-2 (Sigma, St. Louis, MO) in RPMI 1640 supplemented with 10% fetal bovine serum (FBS), 2 mM L-glutamine, 100 µg/ml streptomycin, 100 U/ml penecillin, 1% non-essential amino acids and 2 mM HEPES. Following stimulation, peripheral blood lymphocytes were cultured in above media containing 5% conditioned media (Sigma) for up to 15 days.
Human activated T cell chemotaxis assays were performed using 96-well ChemoTx® microplates (Neuro Probe, Inc., Gaithersburg, MD) with a 3 µm filter as per manufacturers' instructions. Activated T cells were washed with RPMI medium twice, and then resuspended in the medium containing 20% FBS. 1.25 × 10^5 cells/reaction were mixed with indicated concentrations of the compound and placed on the filter. The compound and chemokines were mixed and placed in the bottom well of the ChemoTx system. […] The number of migrated cells was measured using the Cell Titer Glo Luminescent Assay from Promega (Madison, WI) as per vendor's instructions. Chemotaxis is expressed as a chemotactic index, which is a ratio versus the one without chemokines (spontaneous migration). […]

[2] = biological target: CXCR1 (Homo sapiens, UniProt P25024); assay: GPCR counterscreen binding assay
Method: (§1) SCH 546738 was tested at concentrations of 1-10 μM against a panel of 49 GPCR binding assays. Most of the assays were not affected by SCH 546738 (Table 2). […] In addition, SCH 546738 has a favourable pharmacokinetic profile in rodents. […] Therefore, SCH 546738 is suitable for in vivo preclinical studies.

[3] = biological target: Adrenergic α1A (Homo sapiens, UniProt P35348); assay: GPCR counterscreen binding assay
Method: as §1

[4] = biological target: Vasopressin (oxytocin) (Homo sapiens, UniProt P30559); assay: GPCR counterscreen binding assay
Method: as §1

[5] = biological target: CCR5 (Homo sapiens, UniProt P51681); assay: GPCR counterscreen binding assay
Method: as §1

[6] = system: Purinergic P2Y1_2; assay: GPCR counterscreen binding assay; settings: @ 4 μM
Method: as §1

[7] = biological target: Adrenergic α1B (Homo sapiens, UniProt P35368); assay: GPCR counterscreen binding assay
Method: as §1

[8] = biological target: Adrenergic α2A (Homo sapiens, UniProt P08913); assay: GPCR counterscreen binding assay
Chain of Adrenergic α2A (P08913 whole entry): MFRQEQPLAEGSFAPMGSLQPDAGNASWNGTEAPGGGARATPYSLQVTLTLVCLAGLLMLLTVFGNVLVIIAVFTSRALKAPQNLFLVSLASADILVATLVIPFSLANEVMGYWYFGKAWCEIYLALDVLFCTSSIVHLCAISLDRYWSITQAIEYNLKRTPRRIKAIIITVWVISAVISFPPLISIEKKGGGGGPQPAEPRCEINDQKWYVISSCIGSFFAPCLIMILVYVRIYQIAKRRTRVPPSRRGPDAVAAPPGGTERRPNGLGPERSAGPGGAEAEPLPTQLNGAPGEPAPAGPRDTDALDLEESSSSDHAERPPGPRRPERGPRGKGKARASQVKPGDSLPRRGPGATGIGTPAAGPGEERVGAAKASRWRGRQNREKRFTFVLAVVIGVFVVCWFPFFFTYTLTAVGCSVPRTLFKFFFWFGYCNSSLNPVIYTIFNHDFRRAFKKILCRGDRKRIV
Method: as §1

[9] = biological target: Nociceptin NOP1 (Homo sapiens, UniProt P41146); assay: GPCR counterscreen binding assay
Method: as §1

[10] = biological target: Neurokinin NK1 (Homo sapiens, UniProt P25103); assay: GPCR counterscreen binding assay
Chain of Neurokinin NK1 (P25103 whole entry): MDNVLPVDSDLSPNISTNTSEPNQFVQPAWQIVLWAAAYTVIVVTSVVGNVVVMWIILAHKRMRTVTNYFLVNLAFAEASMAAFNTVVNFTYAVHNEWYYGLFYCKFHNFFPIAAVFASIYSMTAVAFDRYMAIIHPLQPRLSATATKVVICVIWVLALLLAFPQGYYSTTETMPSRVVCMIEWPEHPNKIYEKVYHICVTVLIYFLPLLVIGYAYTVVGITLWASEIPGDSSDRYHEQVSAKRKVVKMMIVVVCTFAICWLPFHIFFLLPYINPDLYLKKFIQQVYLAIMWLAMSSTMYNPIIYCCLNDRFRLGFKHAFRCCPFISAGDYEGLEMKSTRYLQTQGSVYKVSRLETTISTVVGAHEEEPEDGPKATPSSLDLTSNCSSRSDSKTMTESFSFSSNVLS
Method: as §1

[11] = biological target: Muscarinic M1 (Homo sapiens, UniProt P11229); assay: GPCR counterscreen binding assay
Chain of Muscarinic M1 (P11229 whole entry): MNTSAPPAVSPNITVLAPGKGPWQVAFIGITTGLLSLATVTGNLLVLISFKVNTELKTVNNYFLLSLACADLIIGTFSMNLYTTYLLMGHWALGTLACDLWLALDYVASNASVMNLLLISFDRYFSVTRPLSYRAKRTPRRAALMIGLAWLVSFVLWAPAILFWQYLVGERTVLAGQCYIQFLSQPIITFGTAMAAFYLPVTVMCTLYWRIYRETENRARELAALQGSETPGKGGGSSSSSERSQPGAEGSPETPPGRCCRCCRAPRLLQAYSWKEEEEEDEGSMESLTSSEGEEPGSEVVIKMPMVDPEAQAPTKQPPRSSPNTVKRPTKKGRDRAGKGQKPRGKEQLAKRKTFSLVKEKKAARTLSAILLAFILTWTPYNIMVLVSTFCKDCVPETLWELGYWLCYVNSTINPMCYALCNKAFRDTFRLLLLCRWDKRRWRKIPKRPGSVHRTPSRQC
Method: as §1

[12] = biological target: Neurokinin NK3 (Homo sapiens, UniProt P29371); assay: GPCR counterscreen binding assay
Method: as §1

[13] = biological target: Neuropeptide Y (Y4) (Homo sapiens, UniProt P50391); assay: GPCR counterscreen binding assay
Method: as §1

[14] = biological target: Serotonergic 5HT1A (Homo sapiens, UniProt P08908); assay: GPCR counterscreen binding assay
Chain of Serotonergic 5HT1A (P08908 whole entry): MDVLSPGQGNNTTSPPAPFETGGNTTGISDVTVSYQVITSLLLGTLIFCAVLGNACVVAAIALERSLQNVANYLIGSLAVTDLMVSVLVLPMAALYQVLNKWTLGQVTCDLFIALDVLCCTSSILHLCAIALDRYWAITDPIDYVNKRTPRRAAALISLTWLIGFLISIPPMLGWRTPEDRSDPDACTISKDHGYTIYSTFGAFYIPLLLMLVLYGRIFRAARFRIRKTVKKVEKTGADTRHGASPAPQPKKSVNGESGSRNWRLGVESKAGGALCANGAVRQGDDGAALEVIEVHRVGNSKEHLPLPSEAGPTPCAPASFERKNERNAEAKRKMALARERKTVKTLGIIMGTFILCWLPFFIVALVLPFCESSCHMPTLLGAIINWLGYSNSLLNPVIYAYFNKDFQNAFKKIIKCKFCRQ
Method: as §1

[15] = biological target: Muscarinic M3 (Homo sapiens, UniProt P20309); assay: GPCR counterscreen binding assay
Method: as §1

[16] = biological target: Purinergic P2Y1 (Homo sapiens, UniProt P47900); assay: GPCR counterscreen binding assay
Method: as §1

[17] = biological target: Neuropeptide Y (Y5) (Homo sapiens, UniProt Q15761); assay: GPCR counterscreen binding assay
Method: as §1

[18] = biological target: CCR1 (Homo sapiens, UniProt P32246); assay: GPCR counterscreen binding assay
Chain of CCR1 (P32246 whole entry): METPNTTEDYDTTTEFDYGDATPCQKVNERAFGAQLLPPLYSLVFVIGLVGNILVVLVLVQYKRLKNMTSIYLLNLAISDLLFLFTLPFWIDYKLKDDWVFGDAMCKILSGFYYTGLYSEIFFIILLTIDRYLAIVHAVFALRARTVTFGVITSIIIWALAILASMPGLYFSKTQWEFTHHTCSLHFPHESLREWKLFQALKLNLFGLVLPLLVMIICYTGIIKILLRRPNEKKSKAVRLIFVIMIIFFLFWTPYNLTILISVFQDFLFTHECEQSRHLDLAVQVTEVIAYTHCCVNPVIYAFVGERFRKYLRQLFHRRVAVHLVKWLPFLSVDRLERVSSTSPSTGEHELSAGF
Method: as §1

[19] = biological target: Prokineticin PKR2 (Homo sapiens, UniProt Q8NFJ6); assay: GPCR counterscreen binding assay
Method: as §1

[20] = biological target: Dopamine D2 (Homo sapiens, UniProt P14416); assay: GPCR counterscreen binding assay
Method: as §1

[21] = biological target: MRGX2 (Homo sapiens, UniProt Q96LB1); assay: GPCR counterscreen binding assay
Method: as §1

[22] = biological target: CCR3 (Homo sapiens, UniProt P51677); assay: GPCR counterscreen binding assay
Method: as §1

[23] = biological target: Mu opiate (Homo sapiens, UniProt P35372); assay: GPCR counterscreen binding assay
Chain of Mu opiate (P35372 whole entry): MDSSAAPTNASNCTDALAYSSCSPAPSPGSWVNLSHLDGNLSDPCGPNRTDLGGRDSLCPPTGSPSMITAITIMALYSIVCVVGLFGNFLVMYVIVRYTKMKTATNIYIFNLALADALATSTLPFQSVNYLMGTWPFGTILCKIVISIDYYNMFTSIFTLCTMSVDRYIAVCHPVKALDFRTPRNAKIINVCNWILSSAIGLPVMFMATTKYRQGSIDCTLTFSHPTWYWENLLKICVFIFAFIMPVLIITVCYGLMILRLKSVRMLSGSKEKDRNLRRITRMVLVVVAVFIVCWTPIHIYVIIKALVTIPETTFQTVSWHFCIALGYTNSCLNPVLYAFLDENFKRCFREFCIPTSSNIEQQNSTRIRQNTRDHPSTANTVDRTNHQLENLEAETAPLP
Method: as §1

[24] = biological target: Prokineticin PKR1 (Homo sapiens, UniProt Q8TCW9); assay: GPCR counterscreen binding assay
Chain of Prokineticin PKR1 (Q8TCW9 whole entry): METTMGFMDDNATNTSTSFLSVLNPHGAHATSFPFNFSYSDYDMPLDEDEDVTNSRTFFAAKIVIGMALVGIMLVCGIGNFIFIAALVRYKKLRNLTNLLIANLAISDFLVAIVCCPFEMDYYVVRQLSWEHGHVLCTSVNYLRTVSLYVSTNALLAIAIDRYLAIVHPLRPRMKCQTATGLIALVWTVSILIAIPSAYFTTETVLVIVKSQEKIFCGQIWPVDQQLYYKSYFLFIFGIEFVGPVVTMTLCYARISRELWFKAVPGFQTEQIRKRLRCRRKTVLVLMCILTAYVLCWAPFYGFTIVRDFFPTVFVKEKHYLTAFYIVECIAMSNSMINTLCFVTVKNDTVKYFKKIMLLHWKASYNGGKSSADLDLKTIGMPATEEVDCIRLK
Method: as §1

[25] = biological target: Vasopressin (V1a) (Homo sapiens, UniProt P37288); assay: GPCR counterscreen binding assay
Method: as §1

[26] = biological target: Vasopressin (V2) (Homo sapiens, UniProt P30518); assay: GPCR counterscreen binding assay
Method: as §1

[27] = biological target: MRGX1 (Homo sapiens, UniProt Q96LB2); assay: GPCR counterscreen binding assay
Chain of MRGX1 (Q96LB2 whole entry): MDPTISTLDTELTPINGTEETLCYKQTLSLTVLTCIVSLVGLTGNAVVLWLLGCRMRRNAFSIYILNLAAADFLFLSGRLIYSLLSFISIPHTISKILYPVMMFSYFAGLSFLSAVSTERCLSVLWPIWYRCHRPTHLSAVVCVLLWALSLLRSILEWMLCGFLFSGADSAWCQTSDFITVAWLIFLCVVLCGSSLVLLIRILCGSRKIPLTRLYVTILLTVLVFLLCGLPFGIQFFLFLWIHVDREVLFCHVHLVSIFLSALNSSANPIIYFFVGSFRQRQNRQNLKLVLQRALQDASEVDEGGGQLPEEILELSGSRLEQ
Method: as §1

[28] = biological target: CCR2 (Homo sapiens, UniProt P41597); assay: GPCR counterscreen binding assay
Method: as §1

[29] = biological target: Adenosine A1 (Homo sapiens, UniProt P30542); assay: GPCR counterscreen binding assay
Method: as §1

[30] = biological target: Neuropeptide Y (Y2) (Homo sapiens, UniProt P49146); assay: GPCR counterscreen binding assay
Chain of Neuropeptide Y (Y2) (P49146 whole entry): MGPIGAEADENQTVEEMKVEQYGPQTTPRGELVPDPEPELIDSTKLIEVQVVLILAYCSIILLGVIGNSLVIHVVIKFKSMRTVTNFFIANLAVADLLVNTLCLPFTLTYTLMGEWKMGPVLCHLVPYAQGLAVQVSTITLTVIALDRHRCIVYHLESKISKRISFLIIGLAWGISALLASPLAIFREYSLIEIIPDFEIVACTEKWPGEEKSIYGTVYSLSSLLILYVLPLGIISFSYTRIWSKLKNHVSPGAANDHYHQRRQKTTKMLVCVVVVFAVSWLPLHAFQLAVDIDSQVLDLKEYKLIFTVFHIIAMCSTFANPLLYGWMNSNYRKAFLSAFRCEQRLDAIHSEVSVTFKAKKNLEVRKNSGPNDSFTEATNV
Method: as §1

[31] = biological target: MCHR1 (Homo sapiens, UniProt Q99705); assay: GPCR counterscreen binding assay
Chain of MCHR1 (Q99705 whole entry): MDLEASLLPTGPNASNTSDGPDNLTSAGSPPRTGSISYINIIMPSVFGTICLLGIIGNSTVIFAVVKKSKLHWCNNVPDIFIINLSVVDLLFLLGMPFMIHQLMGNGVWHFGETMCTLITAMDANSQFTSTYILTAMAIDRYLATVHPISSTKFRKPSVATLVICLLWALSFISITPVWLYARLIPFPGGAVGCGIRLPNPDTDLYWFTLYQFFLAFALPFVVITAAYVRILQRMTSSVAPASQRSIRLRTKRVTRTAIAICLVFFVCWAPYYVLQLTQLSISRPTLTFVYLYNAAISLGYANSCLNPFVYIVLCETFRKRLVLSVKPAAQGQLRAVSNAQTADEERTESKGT
Method: as §1

[32] = biological target: Adrenergic α2C (Homo sapiens, UniProt P18825); assay: GPCR counterscreen binding assay
Chain of Adrenergic α2C (P18825 whole entry): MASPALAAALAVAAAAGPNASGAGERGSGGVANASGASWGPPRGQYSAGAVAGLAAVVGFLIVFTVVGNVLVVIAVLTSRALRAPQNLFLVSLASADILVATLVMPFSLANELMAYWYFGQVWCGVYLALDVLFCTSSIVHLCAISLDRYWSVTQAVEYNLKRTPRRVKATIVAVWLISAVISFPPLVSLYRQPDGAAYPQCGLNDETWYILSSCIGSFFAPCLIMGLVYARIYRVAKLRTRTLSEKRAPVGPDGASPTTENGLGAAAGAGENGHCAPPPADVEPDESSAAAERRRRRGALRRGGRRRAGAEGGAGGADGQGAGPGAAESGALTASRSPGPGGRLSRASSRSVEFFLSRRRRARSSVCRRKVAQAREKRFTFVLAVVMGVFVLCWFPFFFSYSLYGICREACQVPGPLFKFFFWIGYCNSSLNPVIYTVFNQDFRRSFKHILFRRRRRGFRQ
Method: as §1

[33] = biological target: Delta opiate (Homo sapiens, UniProt P41143); assay: GPCR counterscreen binding assay
Chain of Delta opiate (P41143 whole entry): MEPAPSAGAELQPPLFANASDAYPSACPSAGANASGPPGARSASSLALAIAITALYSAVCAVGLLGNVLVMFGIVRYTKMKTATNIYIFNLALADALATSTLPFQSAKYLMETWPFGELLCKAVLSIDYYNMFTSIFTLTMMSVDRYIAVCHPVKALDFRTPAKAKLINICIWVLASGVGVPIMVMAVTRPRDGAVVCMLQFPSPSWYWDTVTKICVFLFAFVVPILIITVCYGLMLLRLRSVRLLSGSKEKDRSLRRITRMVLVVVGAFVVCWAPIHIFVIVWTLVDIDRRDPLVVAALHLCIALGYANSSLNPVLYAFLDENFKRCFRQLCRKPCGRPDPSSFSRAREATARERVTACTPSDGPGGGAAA
Method: as §1

[34] = biological target: Adenosine A2A (Homo sapiens, UniProt P29274); assay: GPCR counterscreen binding assay
Method: as §1

**Q.** For CC[C@H]1CN(c2nc(N)c(C(N)=O)nc2Cl)CCN1C1CCN(Cc2ccc(Cl)cc2)CC1 [SCH 546738], which inhibition at 0.01 µM ([1]; 10 nM compound, CXCL9, CXCL10, CXCL11, 20% FBS, read-out: inhibition of T cell chemotaxis induced by all three CXCR3 ligands) is on record?
**A.** ~90%

**Q.** What about the IC90 ([1]; human activated T cells, read-out: IC90 of CXCR3-mediated chemotaxis) of the same molecule?
**A.** ~0.01 µM

**Q.** What about the inhibition at 10 µM [2] of the same molecule?
**A.** 13%

**Q.** What about the inhibition at 2 µM [3] of the same molecule?
**A.** 11%

**Q.** What about the inhibition at 4 µM [4] of the same molecule?
**A.** 12%

**Q.** And the inhibition at 10 µM [5]?
**A.** 10%

**Q.** And the “Inhibition (%)” value [6]?
**A.** 10% @ 4 μM

**Q.** What about the inhibition at 2 µM [7] of the same molecule?
**A.** 25%

**Q.** And the inhibition at 1 µM [8]?
**A.** 45%

**Q.** What about the inhibition at 4 µM [9] of the same molecule?
**A.** -21%

**Q.** What about the inhibition at 2 µM [10] of the same molecule?
**A.** 15%

**Q.** And the inhibition at 4 µM [11]?
**A.** 22%

**Q.** What about the inhibition at 2 µM [12] of the same molecule?
**A.** 0%

**Q.** And the inhibition at 4 µM [13]?
**A.** -2%

**Q.** And the inhibition at 4 µM [14]?
**A.** 20%

**Q.** And the inhibition at 4 µM [15]?
**A.** 27%

**Q.** What about the inhibition at 4 µM [16] of the same molecule?
**A.** 16%

**Q.** And the inhibition at 4 µM [17]?
**A.** 12%

**Q.** And the inhibition at 10 µM [18]?
**A.** 9%

**Q.** What about the inhibition at 4 µM [19] of the same molecule?
**A.** -5%

**Q.** What about the inhibition at 4 µM [20] of the same molecule?
**A.** 41%

**Q.** What about the inhibition at 4 µM [21] of the same molecule?
**A.** 25%

**Q.** And the inhibition at 10 µM [22]?
**A.** 17%

**Q.** And the inhibition at 4 µM [23]?
**A.** 22%

**Q.** What about the inhibition at 4 µM [24] of the same molecule?
**A.** -1%

**Q.** What about the inhibition at 4 µM [25] of the same molecule?
**A.** 7%

**Q.** And the inhibition at 4 µM [26]?
**A.** 18%

**Q.** And the inhibition at 4 µM [27]?
**A.** 1%

**Q.** And the inhibition at 10 µM [28]?
**A.** 9%

**Q.** What about the inhibition at 4 µM [29] of the same molecule?
**A.** 0%

**Q.** What about the inhibition at 4 µM [30] of the same molecule?
**A.** -9%

**Q.** What about the inhibition at 10 µM [31] of the same molecule?
**A.** 0%

**Q.** And the inhibition at 1 µM [32]?
**A.** 76%

**Q.** What about the inhibition at 4 µM [33] of the same molecule?
**A.** 12%

**Q.** What about the inhibition at 4 µM [34] of the same molecule?
**A.** 3%
